Test results reported in patent publication US10714208B2, “Computer systems for treating diseases” (Biotempus Limited, priority 2009, dated 2020).

Tested on: metastatic melanoma
Assay: Pilot clinical study: temozolomide chemotherapy timed relative to the CRP oscillation cycle
Type: in vivo, human
Experimental: A pilot clinical study was conducted on 12 patients with metastatic melanoma (median age 61; 4 female; 7 with M1c disease) at The Mayo Clinic, Rochester, Minn., USA headed by Dr Svetomir Markovic. Serial CRP measurements were taken every 2-3 days for 2 weeks. The CRP oscillation cycle was identified by analysis of the raw data without any computer aided modelling, and chemotherapy with temozolomide (200 mg/m2 for 5 days, every 28 days) was initiated. Patients were evaluated for clinical and immune response endpoints every 8 weeks until progression.

In the case of `Cn1nnc2c(C(N)=O)ncn2c1=O` [temozolomide], the time to progression (the other patients, treated post CRP-peak) is reported as < 5 months and the remain progression-free (two patients with metastatic melanoma treated in the pre-peak section of the CRP cycle, temozolomide 200 mg/m2 for 5 days, every 28 days) is reported as > 2 years.
